From patent publication US20240423207A1, “PICOLINAMIDE COMPOUNDS WITH FUNGICIDAL ACTIVITY” (CORTEVA AGRISCIENCE LLC, priority 2014, published 2024)
Read-outs that look alike come from different tables or passages of the source.

How the values were obtained:
[1] = tested on: Mycosphaerella graminicola; Anamorph: Septoria tritici; test: Leaf Blotch of Wheat (SEPTTR) fungicidal activity on wheat seedlings; assay type: in vivo; conditions: Zymoseptoria tritici; for pest or weed control at 100 ppm: High Volume; for pest or weed control at 121.5 g/ha: Low Volume, 121.5 g/H
Description: Example A: Evaluation of Fungicidal Activity: Leaf Blotch of Wheat (Mycosphaerella graminicola; Anamorph: Septoria tritici; Bayer code […]): Technical grades of materials were dissolved in acetone, which were then mixed with nine volumes of water (H2O) containing 110 ppm Triton X-100. The fungicide solutions were applied onto wheat seedlings using an automated booth sprayer to run-off. All sprayed plants were allowed to air dry prior to further handling. All fungicides were evaluated using the aforementioned method for their activity vs. all target diseases, unless stated otherwise. Wheat leaf blotch and brown rust activity were also evaluated using track spray applications, in which case the fungicides were formulated as EC formulations, containing 0.1% Trycol 5941 in the spray solutions. Wheat plants (variety Yuma) were grown from seed in a greenhouse in 50% mineral soil/50% soil-less Metro mix until the first leaf was fully emerged, with 7-10 seedlings per pot. These plants were inoculated with an aqueous spore suspension of Septoria tritici either prior to or after fungicide treatments. After inoculation the plants were kept in 100% relative humidity (one day in a dark dew chamber followed by two to three days in a lighted dew chamber at 20° C.) to permit spores to germinate and infect the leaf. The plants were then transferred to a greenhouse set at 20° C. for disease to develop. When disease symptoms were fully expressed on the 1st leaves of untreated plants, infection levels were assessed on a scale of 0 to 100 percent disease severity. Percent disease control was calculated using the ratio of disease severity on treated plants relative to untreated plants.

[2] = tested on: Puccinia triticina; Synonym: Puccinia recondita f sp. tritici; test: Wheat Brown Rust (PUCCRT) fungicidal activity on wheat seedlings; assay type: in vivo; conditions: for pest or weed control at 100 ppm: High Volume; for pest or weed control at 121.5 g/ha: Low Volume, 121.5 g/H
Description: Technical grades of materials were dissolved in acetone, which were then mixed with nine volumes of water (H2O) containing 110 ppm Triton X-100. The fungicide solutions were applied onto wheat seedlings using an automated booth sprayer to run-off. All sprayed plants were allowed to air dry prior to further handling. All fungicides were evaluated using the aforementioned method for their activity vs. all target diseases, unless stated otherwise. Wheat leaf blotch and brown rust activity were also evaluated using track spray applications, in which case the fungicides were formulated as EC formulations, containing 0.1% Trycol 5941 in the spray solutions. Wheat plants (variety Yuma) were grown from seed in a greenhouse in 50% mineral soil/50% soil-less Metro mix until the first leaf was fully emerged, with 7-10 seedlings per pot. These plants were inoculated with an aqueous spore suspension of Septoria tritici either prior to or after fungicide treatments. After inoculation the plants were kept in 100% relative humidity (one day in a dark dew chamber followed by two to three days in a lighted dew chamber at 20° C.) to permit spores to germinate and infect the leaf. The plants were then transferred to a greenhouse set at 20° C. for disease to develop. When disease symptoms were fully expressed on the 1st leaves of untreated plants, infection levels were assessed on a scale of 0 to 100 percent disease severity. Percent disease control was calculated using the ratio of disease severity on treated plants relative to untreated plants. Example B: Evaluation of Fungicidal Activity: Wheat Brown Rust (Puccinia triticina; Synonym: Puccinia recondita f sp. tritici; Bayer code PUCCRT): Wheat plants (variety Yuma) were grown from seed in a greenhouse in 50% mineral soil/50% soil-less Metro mix until the first leaf was fully emerged, with 7-10 seedlings per pot. These plants were inoculated with an aqueous spore suspension of Puccinia triticina either prior to or after fungicide treatments. After inoculation the plants were kept in a dark dew room at 22° C. with 100% relative humidity overnight to permit spores to germinate and infect the leaf. The plants were then transferred to a greenhouse set at 24° C. for disease to develop. Fungicide formulation, application and disease assessment followed the procedures as described in the Example A.

[3] = 24 h, 1 Day Protectant, read-out: SEPTTR 1DP disease control
[4] = 72 h, 3 Day Curative, read-out: SEPTTR 3DC disease control
[5] = 24 h, 1 Day Protectant, read-out: PUCCRT 1DP disease control
[6] = 72 h, 3 Day Curative, read-out: PUCCRT 3DC disease control

SMILES | pest or weed control at 100 ppm [1, 3] [%] | pest or weed control at 100 ppm [1, 4] [%] | pest or weed control at 100 ppm [2, 5] [%] | pest or weed control at 100 ppm [2, 6] [%] | pest or weed control at 121.5 g/ha [1, 3] [%] | pest or weed control at 121.5 g/ha [1, 4] [%] | pest or weed control at 121.5 g/ha [2, 6] [%] | pest or weed control at 121.5 g/ha [2, 5] [%]
COc1ccnc(C(=O)N[C@@H](CC(C)C)C(=O)O[C@@H](C)C(c2ccc(F)cc2)c2ccc(F)cc2)c1O [Cmpd 116] | < 80 | < 80 | < 80 | – | – | – | – | –
COc1ccccc1C(c1ccccc1OC)[C@H](C)OC(=O)[C@H](C)NC(=O)c1nccc(OC)c1O [Cmpd 117] | > 80 | > 80 | > 80 | < 80 | – | – | – | –
COc1cccc(C(c2cccc(OC)c2)[C@H](C)OC(=O)[C@H](C)NC(=O)c2nccc(OC)c2O)c1 [Cmpd 118] | < 80 | > 80 | > 80 | > 80 | – | – | – | –
COc1ccnc(C(=O)N[C@@H](C)C(=O)O[C@@H](C)C(c2ccc(C)c(F)c2)c2ccc(C)c(F)c2)c1O [Cmpd 120] | > 80 | > 80 | > 80 | < 80 | – | – | – | –
COc1ccnc(C(=O)N[C@@H](C)C(=O)O[C@@H](C)C(c2ccc(C)c(Cl)c2)c2ccc(C)c(Cl)c2)c1O [Cmpd 121] | > 80 | > 80 | > 80 | < 80 | – | – | – | –
C#Cc1ccc(C(c2ccc(C#C)cc2)[C@H](C)OC(=O)[C@H](C)NC(=O)c2nccc(OC)c2O)cc1 [Cmpd 123] | < 80 | > 80 | < 80 | – | – | – | – | –
CCc1ccc(C(c2ccc(CC)cc2)[C@H](C)OC(=O)[C@H](C)NC(=O)c2nccc(OC)c2O)cc1 [Cmpd 124] | > 80 | > 80 | > 80 | > 80 | – | – | – | –
COc1ccnc(C(=O)N[C@@H](C)C(=O)O[C@@H](C)[C@@H](c2ccccc2)c2ccc(F)cc2)c1O [Cmpd 125] | > 80 | > 80 | > 80 | > 80 | – | – | – | –
COc1ccnc(C(=O)N[C@@H](C)C(=O)O[C@@H](C)C(O)(c2ccc(Cl)c(Cl)c2)c2ccc(Cl)c(Cl)c2)c1O [Cmpd 127] | < 80 | – | < 80 | – | – | – | – | –
COc1ccnc(C(=O)N[C@@H](C)C(=O)O[C@@H](C)C(O)(c2ccc(Cl)c(F)c2)c2ccc(Cl)c(F)c2)c1O [Cmpd 128] | > 80 | < 80 | < 80 | – | – | – | – | –
COc1ccnc(C(=O)N[C@@H](C)C(=O)O[C@@H](C)C(c2ccc(Cl)c(C)c2)c2ccc(Cl)c(C)c2)c1O [Cmpd 129] | > 80 | > 80 | > 80 | < 80 | – | – | – | –
COc1ccnc(C(=O)N[C@@H](C)C(=O)O[C@@H](C)C(c2ccc(F)c(Cl)c2)c2ccc(F)c(Cl)c2)c1O [Cmpd 132] | > 80 | > 80 | > 80 | < 80 | – | – | – | –
COc1ccnc(C(=O)N[C@@H](C)C(=O)O[C@@H](C)C(O)(c2ccccc2)c2ccccc2)c1OCOC(C)=O [Cmpd 138] | – | – | – | – | > 80 | < 80 | < 80 | –
COc1ccnc(C(=O)N[C@@H](C)C(=O)O[C@@H](C)C(c2cccs2)c2cccs2)c1OC(C)=O [Cmpd 143] | – | – | – | – | – | < 80 | – | < 80
COc1ccnc(C(=O)N[C@@H](C)C(=O)O[C@@H](C)C(c2cccs2)c2cccs2)c1OCOC(C)=O [Cmpd 144] | – | – | – | – | < 80 | < 80 | < 80 | < 80
CCOC(c1ccccc1)(c1ccccc1)[C@H](C)OC(=O)[C@H](C)NC(=O)c1nccc(OC)c1OCOC(C)=O [Cmpd 147] | – | – | – | – | < 80 | > 80 | < 80 | < 80
COc1ccnc(C(=O)N[C@@H](C)C(=O)O[C@@H](C)C(OC)(c2ccccc2)c2ccccc2)c1OCOC(C)=O [Cmpd 149] | – | – | – | – | > 80 | > 80 | < 80 | < 80
COc1ccnc(C(=O)N[C@@H](C)C(=O)O[C@@H](C)C(F)(c2ccccc2)c2ccccc2)c1OC(C)=O [Cmpd 152] | – | – | – | – | > 80 | > 80 | < 80 | < 80
COc1ccnc(C(=O)N[C@@H](C)C(=O)O[C@@H](C)C(F)(c2ccccc2)c2ccccc2)c1OCOC(C)=O [Cmpd 153] | – | – | – | – | > 80 | > 80 | < 80 | < 80
COc1ccc(C(c2ccc(OC)cc2)[C@H](C)OC(=O)[C@H](C)NC(=O)c2nccc(OC)c2OC(C)=O)cc1 [Cmpd 155] | – | – | – | – | > 80 | > 80 | > 80 | > 80
COc1ccnc(C(=O)N[C@@H](C)C(=O)O[C@@H](C)C(c2cccc(F)c2)c2cccc(F)c2)c1OC(C)=O [Cmpd 156] | – | – | – | – | > 80 | > 80 | > 80 | > 80
COc1ccnc(C(=O)N[C@@H](C)C(=O)O[C@@H](C)C(c2cccc(Cl)c2)c2cccc(Cl)c2)c1OC(C)=O [Cmpd 157] | – | – | – | – | > 80 | > 80 | > 80 | > 80
COc1ccc(C(c2ccc(OC)cc2)[C@H](C)OC(=O)[C@H](C)NC(=O)c2nccc(OC)c2OCOC(C)=O)cc1 [Cmpd 158] | – | – | – | – | > 80 | > 80 | > 80 | > 80
COc1ccnc(C(=O)N[C@@H](C)C(=O)O[C@@H](C)C(c2cccc(F)c2)c2cccc(F)c2)c1OCOC(C)=O [Cmpd 159] | – | – | – | – | > 80 | > 80 | > 80 | > 80
COc1ccnc(C(=O)N[C@@H](C)C(=O)O[C@@H](C)C(c2cccc(Cl)c2)c2cccc(Cl)c2)c1OCOC(C)=O [Cmpd 160] | – | – | – | – | > 80 | > 80 | < 80 | > 80
COc1ccnc(C(=O)N[C@@H](C)C(=O)OC(C)C2c3ccccc3-c3ccccc32)c1OCOC(C)=O (stereo partly drawn) [Cmpd 163] | – | – | – | – | < 80 | > 80 | – | < 80
COc1ccnc(C(=O)N[C@@H](C)C(=O)O[C@@H](C)C(c2ccc(Br)cc2)c2ccc(Br)cc2)c1OC(C)=O [Cmpd 165] | – | – | – | – | > 80 | > 80 | < 80 | > 80
COc1ccnc(C(=O)N[C@@H](C)C(=O)O[C@@H](C)C(c2ccc(C)s2)c2ccc(C)s2)c1OC(C)=O [Cmpd 166] | – | – | – | – | < 80 | < 80 | – | < 80
